Literature values as cited in patent US20200129637A1, “COMBINATION THERAPY WITH AN ANTI-AXL ANTIBODY-DRUG CONJUGATE” (ADC Therapeutics SA, priority 2017, published 2020).

Tests used:
AXL [1] = tested on: AXL
AXL [2] = settings: incubation of tumor cells with MEKi
[3] = tested on: chronic lymphocytic leukaemia cells

Compound	Efficiency of the homologous recombination repair machinery (AXL [1])	Expression of DNA repair genes (AXL [1])	AXL on the membrane of tumor cells (AXL [2])	ERCC1 transcription [3]
Nc1nc(Nc2ccc3c(c2)CC[C@@H](N2CCCC2)CC3)nn1-c1cc2c(nn1)-c1ccccc1CCC2 [BGB324]	diminish the efficiency	decrease expression of DNA repair genes	–	–
N#CC(=C(/N)Sc1ccccc1N)/C(C#N)=C(\N)Sc1ccccc1N [U0126]	–	–	strong accumulation of AXL	–
O=C(NOC[C@H](O)CO)c1ccc(F)c(F)c1Nc1ccc(I)cc1F [PD325901]	–	–	strong accumulation of AXL	–
CN1CCN(Cc2ccc(Nc3ncc(Cl)c(Nc4ccccc4S(=O)(=O)N(C)C)n3)cc2)CC1 [TP0903]	diminish the efficiency	decrease expression of DNA repair genes	–	–
Fludarabine	–	–	–	suppress ERCC1 transcription
